The NIST ThermoML archive (doi:10.1016/j.jct.2012.03.003)

Assay: xn = mol fraction of the nth substance listed
Details: Liquid, Vibrating tube method

COc1cc2c(cc1O)CC1c3c(cc(O)c(OC)c3-2)CCN1C (stereo not given) [boldine] + CCO
Details	mass density [kg/m3]
313.01 K, 1000 kPa, x1 = 0.0196	817.64
313.01 K, 2000 kPa, x1 = 0.0196	818.47
313.01 K, 3000 kPa, x1 = 0.0196	819.29
313.01 K, 4000 kPa, x1 = 0.0196	820.13
313.01 K, 5000 kPa, x1 = 0.0196	820.98
313.01 K, 6000 kPa, x1 = 0.0196	821.82
313.01 K, 7000 kPa, x1 = 0.0196	822.67
313.01 K, 8000 kPa, x1 = 0.0196	823.53
313.01 K, 9000 kPa, x1 = 0.0196	824.37
313.01 K, 10000 kPa, x1 = 0.0196	825.22
313.01 K, 11000 kPa, x1 = 0.0196	826.07
313.01 K, 12000 kPa, x1 = 0.0196	826.9
313.01 K, 13000 kPa, x1 = 0.0196	827.74
313.01 K, 14000 kPa, x1 = 0.0196	828.55
313.01 K, 15000 kPa, x1 = 0.0196	829.36
313.01 K, 16000 kPa, x1 = 0.0196	830.17
313.01 K, 17000 kPa, x1 = 0.0196	830.96
313.01 K, 18000 kPa, x1 = 0.0196	831.74
313.01 K, 19000 kPa, x1 = 0.0196	832.5
313.01 K, 20000 kPa, x1 = 0.0196	833.23
313.09 K, 1000 kPa, x1 = 0.0012	775.75
313.09 K, 1000 kPa, x1 = 0.0267	829.8
313.09 K, 2000 kPa, x1 = 0.0012	776.61
313.09 K, 2000 kPa, x1 = 0.0267	830.62
313.09 K, 3000 kPa, x1 = 0.0012	777.49
313.09 K, 3000 kPa, x1 = 0.0267	831.43
313.09 K, 4000 kPa, x1 = 0.0012	778.37
313.09 K, 4000 kPa, x1 = 0.0267	832.27
313.09 K, 5000 kPa, x1 = 0.0012	779.27
313.09 K, 5000 kPa, x1 = 0.0267	833.1
313.09 K, 6000 kPa, x1 = 0.0012	780.17
313.09 K, 6000 kPa, x1 = 0.0267	833.94
313.09 K, 7000 kPa, x1 = 0.0012	781.08
313.09 K, 7000 kPa, x1 = 0.0267	834.77
313.09 K, 8000 kPa, x1 = 0.0012	781.99
313.09 K, 8000 kPa, x1 = 0.0267	835.61
313.09 K, 9000 kPa, x1 = 0.0012	782.89
313.09 K, 9000 kPa, x1 = 0.0267	836.46
313.09 K, 10000 kPa, x1 = 0.0012	783.79
313.09 K, 10000 kPa, x1 = 0.0267	837.26
313.09 K, 11000 kPa, x1 = 0.0012	784.7
313.09 K, 11000 kPa, x1 = 0.0267	838.09
313.09 K, 12000 kPa, x1 = 0.0012	785.59
313.09 K, 12000 kPa, x1 = 0.0267	838.91
313.09 K, 13000 kPa, x1 = 0.0012	786.48
313.09 K, 13000 kPa, x1 = 0.0267	839.73
313.09 K, 14000 kPa, x1 = 0.0012	787.35
313.09 K, 14000 kPa, x1 = 0.0267	840.53
313.09 K, 15000 kPa, x1 = 0.0012	788.21
313.09 K, 15000 kPa, x1 = 0.0267	841.33
313.09 K, 16000 kPa, x1 = 0.0012	789.07
313.09 K, 16000 kPa, x1 = 0.0267	842.12
313.09 K, 17000 kPa, x1 = 0.0012	789.89
313.09 K, 17000 kPa, x1 = 0.0267	842.89
313.09 K, 18000 kPa, x1 = 0.0012	790.71
313.09 K, 18000 kPa, x1 = 0.0267	843.66
313.09 K, 19000 kPa, x1 = 0.0012	791.52
313.09 K, 19000 kPa, x1 = 0.0267	844.41
313.09 K, 20000 kPa, x1 = 0.0012	792.31
313.09 K, 20000 kPa, x1 = 0.0267	845.14
313.1 K, 1000 kPa, x1 = 0.0074	788.76
313.1 K, 2000 kPa, x1 = 0.0074	789.61
313.1 K, 3000 kPa, x1 = 0.0074	790.46
313.1 K, 4000 kPa, x1 = 0.0074	791.34
313.1 K, 5000 kPa, x1 = 0.0074	792.21
313.1 K, 6000 kPa, x1 = 0.0074	793.1
313.1 K, 7000 kPa, x1 = 0.0074	793.98
313.1 K, 8000 kPa, x1 = 0.0074	794.88
313.1 K, 9000 kPa, x1 = 0.0074	795.77
313.1 K, 10000 kPa, x1 = 0.0074	796.66
313.1 K, 11000 kPa, x1 = 0.0074	797.53
313.1 K, 12000 kPa, x1 = 0.0074	798.41
313.1 K, 13000 kPa, x1 = 0.0074	799.28
313.1 K, 14000 kPa, x1 = 0.0074	800.14
313.1 K, 15000 kPa, x1 = 0.0074	800.98
